Two compounds from PMC9979163, “Discovery and functional characterization of N-(thiazol-2-yl)-benzamide analogs as the first class of selective antagonists of the Zinc-Activated Channel (ZAC)” (Biochemical pharmacology, 2021) can be followed below.

The target of one data set is T1, ZAC (Homo sapiens, UniProt Q401N2).
T1 sequence (Q401N2 26-412): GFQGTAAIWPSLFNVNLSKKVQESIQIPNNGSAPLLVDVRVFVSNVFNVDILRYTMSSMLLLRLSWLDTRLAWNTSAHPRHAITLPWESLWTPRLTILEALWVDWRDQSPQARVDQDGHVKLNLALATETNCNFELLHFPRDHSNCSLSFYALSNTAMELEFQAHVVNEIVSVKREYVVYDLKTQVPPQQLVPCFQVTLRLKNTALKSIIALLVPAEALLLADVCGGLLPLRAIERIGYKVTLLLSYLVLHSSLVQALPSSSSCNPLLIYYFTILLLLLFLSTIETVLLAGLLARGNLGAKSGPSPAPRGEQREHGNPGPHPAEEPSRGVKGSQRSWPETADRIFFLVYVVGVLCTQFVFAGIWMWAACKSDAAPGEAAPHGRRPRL
Put plainly: TEVC recordings, H+-evoked currents at ZAC expressed in Xenopus oocytes. It counts as cell-based. How it is done: (§1) The cDNAs for the various WT and chimeric CLR subunits were linearized and subsequently transcribed and capped mMessage mMachine T7 RNA transcription kit (Ambion, Waltham, MA). […]
(§2) On the day of experiment, all compound dilutions were prepared in a saline solution [115 mM NaCl, 2.5 mM KCl, 10 mM MOPS (pH 7.5), 1.8 mM CaCl2, 0.1 mM MgCl2] and pH adjusted to 7.5 (if needed). […] Currents were recorded using pCLAMP 10 (Molecular Devices, Sunnyvale, CA). […]
(§3) In all recordings, the compounds or compound combinations were applied in the bath until the peak current decayed to a steady state (up to 30 sec at the most). […] The functional properties of the modulators at the CLRs were determined by pre-application of the modulator to the perfusate 30 sec and followed by co-application of the modulator and the agonist to the perfusate. […]
(§4) Data analysis of the results from the TEVC recordings were performed using Clampfit software version 10.5 (Molecular Devices, Crawley, UK) and GraphPad Prism version 7.0c (GraphPad Software, Inc. La Jolla, CA). […] I-V relationships were analyzed by fitting the curves with a third order polynomial model. […]

The next data set concerns the target hα3β4 nAChR (Homo sapiens, UniProt P30926+P32297). Nature of the data set: TEVC selectivity, hα3β4 nAChR in oocytes. It counts as cell-based. Conditions: 30 μM, 30 s preapplication, 3 μM (S)-nicotine (EC20–EC40). How it is done: as §1, §2, §3, §4
Another data set can be described thus: Solubility (remark). It counts as physicochemical.
Another data set addresses T2, hEAAT3 (Homo sapiens, UniProt P43005).
T2 construct: expressed in transfected cells
T2 sequence (P43005 1-524): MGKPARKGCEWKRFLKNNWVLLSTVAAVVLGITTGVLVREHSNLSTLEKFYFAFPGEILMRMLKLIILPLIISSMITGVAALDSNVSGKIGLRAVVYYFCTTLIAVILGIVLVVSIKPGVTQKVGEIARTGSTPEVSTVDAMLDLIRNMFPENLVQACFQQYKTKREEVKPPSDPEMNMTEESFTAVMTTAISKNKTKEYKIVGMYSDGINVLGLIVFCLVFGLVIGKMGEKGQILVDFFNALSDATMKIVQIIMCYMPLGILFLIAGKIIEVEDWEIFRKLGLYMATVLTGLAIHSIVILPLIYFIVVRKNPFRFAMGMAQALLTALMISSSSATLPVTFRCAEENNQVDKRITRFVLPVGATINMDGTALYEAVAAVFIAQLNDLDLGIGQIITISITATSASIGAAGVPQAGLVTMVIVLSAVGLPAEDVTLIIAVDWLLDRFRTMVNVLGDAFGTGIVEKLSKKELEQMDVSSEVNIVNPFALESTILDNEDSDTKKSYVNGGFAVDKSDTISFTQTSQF
Put plainly: FMP assay at hEAAT3-HEK293 cells (glutamate-induced response). It counts as cell-based. Conditions: concentrations up to 100 μM, data not shown.

Another data set addresses T3, rα3β4-nAChR (Rattus norvegicus, UniProt P04757+P12392).
T3 construct: expressed in transfected cells
Nature of the data set: FMP assay at rα3β4-nAChR-HEK293 cells ((S)-nicotine-induced response). It counts as cell-based. Conditions: concentrations up to 100 μM, data not shown.

Structures are written as SMILES.

T3 sequence (P04757 26-499): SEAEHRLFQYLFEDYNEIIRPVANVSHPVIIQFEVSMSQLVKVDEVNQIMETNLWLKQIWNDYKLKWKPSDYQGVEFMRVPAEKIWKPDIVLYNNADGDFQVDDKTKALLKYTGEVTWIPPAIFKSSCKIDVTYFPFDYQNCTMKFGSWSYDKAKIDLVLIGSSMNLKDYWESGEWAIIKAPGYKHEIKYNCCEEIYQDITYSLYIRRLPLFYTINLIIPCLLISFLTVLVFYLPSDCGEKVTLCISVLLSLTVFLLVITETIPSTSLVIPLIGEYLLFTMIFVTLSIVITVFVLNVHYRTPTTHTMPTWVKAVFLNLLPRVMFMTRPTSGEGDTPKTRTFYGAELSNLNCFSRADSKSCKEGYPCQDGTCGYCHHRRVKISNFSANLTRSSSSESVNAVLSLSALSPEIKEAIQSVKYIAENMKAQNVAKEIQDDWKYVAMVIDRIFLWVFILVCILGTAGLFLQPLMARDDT
T3 sequence (P12392 22-495 limits assumed): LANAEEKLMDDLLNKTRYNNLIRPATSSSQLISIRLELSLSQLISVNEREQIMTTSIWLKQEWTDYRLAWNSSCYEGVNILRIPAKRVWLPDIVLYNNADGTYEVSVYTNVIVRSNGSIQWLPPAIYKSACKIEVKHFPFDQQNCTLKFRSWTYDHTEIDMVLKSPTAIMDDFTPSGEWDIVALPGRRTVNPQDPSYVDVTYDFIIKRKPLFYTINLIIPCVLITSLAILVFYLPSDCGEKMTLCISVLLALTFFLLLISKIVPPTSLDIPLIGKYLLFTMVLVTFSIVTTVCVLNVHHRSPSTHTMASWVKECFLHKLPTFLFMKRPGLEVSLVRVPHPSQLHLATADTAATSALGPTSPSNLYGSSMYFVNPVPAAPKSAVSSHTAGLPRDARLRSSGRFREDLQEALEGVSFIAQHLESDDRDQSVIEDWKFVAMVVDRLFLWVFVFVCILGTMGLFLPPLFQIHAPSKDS
Chain of hα3β4 nAChR (P32297 32-505): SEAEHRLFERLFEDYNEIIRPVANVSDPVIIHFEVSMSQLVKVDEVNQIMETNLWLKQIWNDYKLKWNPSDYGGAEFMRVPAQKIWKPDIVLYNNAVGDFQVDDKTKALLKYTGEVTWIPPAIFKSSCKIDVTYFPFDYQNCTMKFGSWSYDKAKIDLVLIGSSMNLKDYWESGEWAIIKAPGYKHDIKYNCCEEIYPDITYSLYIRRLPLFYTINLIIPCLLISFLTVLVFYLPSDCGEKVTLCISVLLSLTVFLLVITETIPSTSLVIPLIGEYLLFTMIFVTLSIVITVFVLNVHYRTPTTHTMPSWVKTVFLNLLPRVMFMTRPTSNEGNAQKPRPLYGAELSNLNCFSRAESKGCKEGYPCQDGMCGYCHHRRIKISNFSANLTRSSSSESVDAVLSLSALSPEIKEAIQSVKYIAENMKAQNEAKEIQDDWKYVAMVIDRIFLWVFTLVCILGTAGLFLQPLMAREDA
Chain of hα3β4 nAChR (P30926 22-498): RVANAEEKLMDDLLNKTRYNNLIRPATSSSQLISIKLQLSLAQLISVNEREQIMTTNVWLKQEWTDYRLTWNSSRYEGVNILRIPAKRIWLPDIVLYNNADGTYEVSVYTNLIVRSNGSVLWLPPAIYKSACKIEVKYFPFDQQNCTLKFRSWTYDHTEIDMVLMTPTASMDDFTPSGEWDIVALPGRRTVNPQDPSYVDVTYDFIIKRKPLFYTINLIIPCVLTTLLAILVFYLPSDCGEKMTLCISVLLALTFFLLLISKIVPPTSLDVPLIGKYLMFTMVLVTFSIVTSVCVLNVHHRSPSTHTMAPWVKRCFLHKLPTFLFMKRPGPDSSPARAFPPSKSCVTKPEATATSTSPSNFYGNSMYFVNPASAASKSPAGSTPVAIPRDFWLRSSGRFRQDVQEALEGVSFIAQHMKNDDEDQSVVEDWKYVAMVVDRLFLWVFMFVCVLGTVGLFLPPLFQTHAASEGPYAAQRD

Broadly, the IC50 is the concentration that gives 50% inhibition. Turning to `CC(C)(C)c1csc(NC(=O)c2cccc(F)c2)n1` [5a, N-(4-(tert-butyl)thiazol-2-yl)-3-fluorobenzamide], the “Voltage dependence of ZAC inhibition” value on ZAC (10 μM, H+ (pH 6.5)-evoked currents, −60 mV and +60 mV) was “voltage-independent”. On ZAC (H+ (pH 6.0) as agonist, TEVC, steady-state current, n = 6), the IC50 was 8.5 µM. Also, at hα3β4 nAChR, the “Agonist, antagonist or PAM activity” value is listed as “did not display significant activity”. The “Solubility (in words)” value in the data set “Solubility (remark)” was “limited solubility”.

Consider `COC(=O)c1sc(NC(=O)c2cc(Br)ccc2Cl)nc1C` [compound 1, 2-(5-bromo-2-chlorobenzamido)-4-methylthiazole-5-methyl ester], for which the “Effect on glutamate-induced response” value on hEAAT3 is reported as “did not affect”. Also, the “Effect on (S)-nicotine-induced response” value at rα3β4-nAChR is “did not affect”.
